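96-well plates; 48 h exposure; 5 concentrations. Endpoints by linear interpolation between flanking doses. Not reached: highest tested concentration assigned. GI50 is the concentration that inhibits growth by half. TGI marks complete inhibition of growth.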
Legend:
Assay in all cases: growth of human tumour cells (NCI), 48 h
SF-295 CNS = tested on: SF-295 CNS
NCI-H522 lung = tested on: NCI-H522 lung
UACC-62 melanoma = tested on: UACC-62 melanoma
A498 renal = tested on: A498 renal
NCI-H460 lung = tested on: NCI-H460 lung
NCI-H226 lung = tested on: NCI-H226 lung
HCT-116 colon = tested on: HCT-116 colon
RPMI-8226 leukemia = tested on: RPMI-8226 leukemia
MCF7 breast = tested on: MCF7 breast
BT-549 breast = tested on: BT-549 breast

Row | Structure (SMILES) | TGI (SF-295 CNS) | TGI (NCI-H522 lung) | TGI (UACC-62 melanoma) | TGI (A498 renal) | TGI (NCI-H460 lung) | TGI (NCI-H226 lung) | TGI (HCT-116 colon) | TGI (RPMI-8226 leukemia) | TGI (MCF7 breast) | TGI (BT-549 breast) | GI50 (SF-295 CNS) | GI50 (NCI-H522 lung) | GI50 (UACC-62 melanoma) | GI50 (A498 renal) | GI50 (NCI-H460 lung) | GI50 (NCI-H226 lung)
1 | CC1(C)COC(c2c(-c3ccccc3)noc2CS(=O)c2ccccc2)=N1 (centres undefined) | > 100 µM | > 100 µM | 76.9 µM | > 100 µM | > 100 µM | > 100 µM | > 100 µM | > 100 µM | – | – | – | – | – | – | – | –
2 | CCN(CC)CCCCC1CCN(CC(=O)N2c3ccccc3NC(=O)CC2C)CC1 (centres undefined) | > 100 µM | > 100 µM | > 100 µM | > 100 µM | > 100 µM | > 100 µM | > 100 µM | > 100 µM | – | – | – | – | – | – | – | –
3 | O=CNNC(=O)Nc1ccc(Cl)cc1 | > 100 µM | – | > 100 µM | 97.6 µM | – | > 100 µM | > 100 µM | > 100 µM | > 100 µM | – | – | – | – | – | – | –
4 | CC12CC(C/C1=N/O)C(C)(C)C2 (centres undefined) | > 100 µM | > 100 µM | > 100 µM | > 100 µM | > 100 µM | > 100 µM | > 100 µM | – | > 100 µM | > 100 µM | – | – | – | – | – | –
5 | O=C(OCc1ccccc1C1CSCSC1)c1cc(C(=O)OCc2ccccc2C2CSCSC2)c(C(=O)OCc2ccccc2C2CSCSC2)cc1C(=O)OCc1ccccc1C1CSCSC1 | > 100 µM | > 100 µM | > 100 µM | > 100 µM | > 100 µM | > 100 µM | > 100 µM | > 100 µM | – | – | – | – | – | – | – | –
6 | O=C(c1ccco1)C1CC(c2ccc3ccccc3c2O)=NN1c1ccc([N+](=O)[O-])cc1[N+](=O)[O-] (centres undefined) | > 100 µM | 47.5 µM | > 100 µM | > 100 µM | 33.9 µM | > 100 µM | > 100 µM | – | > 100 µM | > 100 µM | – | – | – | – | – | –
7 | OC12CCCCCC1(N1CCOCC1)c1ccccc12 (centres undefined) | > 100 µM | > 100 µM | > 100 µM | > 100 µM | > 100 µM | > 100 µM | > 100 µM | > 100 µM | – | – | – | – | – | – | – | –
8 | Cc1cc(=O)[nH]c(NNC(C#N)c2ccc([N+](=O)[O-])cc2)n1 (centres undefined) | > 100 µM | > 100 µM | > 100 µM | – | > 100 µM | > 100 µM | > 100 µM | > 100 µM | – | – | – | – | – | – | – | –
9 | CC(C)(C)c1c(C(C)(C)C)c(=O)c1=O | > 100 µM | – | > 100 µM | > 100 µM | > 100 µM | > 100 µM | > 100 µM | > 100 µM | > 100 µM | > 100 µM | – | – | – | – | – | –
10 | [N-]=[N+]=C(C(=O)C(=[N+]=[N-])C(=O)c1ccccc1)C(=O)c1ccccc1 | > 100 µM | > 100 µM | > 100 µM | – | > 100 µM | – | > 100 µM | > 100 µM | > 100 µM | > 100 µM | – | – | – | – | – | –
11 | O=c1c2c(nc3n1CCC3)sc1c(O)c(Br)ccc12 | 35 µM | 37.9 µM | 35.8 µM | 24.5 µM | 34.4 µM | 73.2 µM | 35.2 µM | 53.6 µM | – | – | – | – | – | – | – | –
12 | Cc1cc2occ(-c3ccc(Cl)cc3)c2c(=O)o1 | > 100 µM | > 100 µM | > 100 µM | > 100 µM | > 100 µM | > 100 µM | > 100 µM | > 100 µM | – | – | – | – | – | – | – | –
13 | O=C(CSc1nc2ccc(I)cc2c(=O)n1Cc1ccccc1)NN1C(=O)CCC1=O | > 100 µM | 47.1 µM | > 100 µM | – | > 100 µM | 84.6 µM | > 100 µM | > 100 µM | > 100 µM | – | – | – | – | – | – | –
14 | CC(=O)NC1=C(NCC(C)C)C(=O)c2ccccc2C1=O | > 100 µM | – | 34.7 µM | > 100 µM | > 100 µM | 29.5 µM | 35.2 µM | > 100 µM | – | – | – | – | – | – | – | –
15 | Cc1cn([C@H]2[C@@H](CO)C[C@H]2O)c(=O)[nH]c1=O | > 100 µM | > 100 µM | – | > 100 µM | > 100 µM | > 100 µM | > 100 µM | > 100 µM | > 100 µM | > 100 µM | – | – | – | – | – | –
16 | CC(=O)Nc1ccc(C(=O)N2N=C(C)/C(=C/c3ccc(O)cc3)C2=O)cc1 | > 100 µM | > 100 µM | – | – | > 100 µM | > 100 µM | > 100 µM | > 100 µM | – | – | – | – | – | – | – | –
17 | N#CCCC1(CCC#N)CCCCCCC(CCC#N)(CCC#N)C(O)C1O (centres undefined) | > 100 µM | > 100 µM | – | > 100 µM | > 100 µM | > 100 µM | > 100 µM | – | > 100 µM | – | – | – | – | – | – | –
18 | CC(c1ccccc1)N1CC(C)(c2ccccc2)N(O)C(c2ccccc2)C1C (centres undefined) | 37.5 µM | 32.3 µM | – | 85.3 µM | 27 µM | – | 11.6 µM | 62.8 µM | – | – | – | – | – | – | – | –
19 | COc1ccc(C2=C(OC(=O)N(C)C)c3cccn3-c3cc(Cl)ccc3S2)cc1 | > 10 µM | – | > 10 µM | – | – | – | – | > 10 µM | > 10 µM | – | – | – | – | – | – | –
20 | O=C1OI(C#Cc2ccccc2)c2ccccc21 | 28.4 µM | – | 19.3 µM | 16.4 µM | 13.4 µM | 19 µM | 5.8 µM | 4.24 µM | 14.9 µM | 8.22 µM | – | – | – | – | – | –
21 | CC1=C2C(=O)c3ccccc3C(=O)[C@H]2C[C@@H](N2CCCCCC2=O)O1 | 35.6 µM | 38.9 µM | 37.4 µM | > 100 µM | 33.3 µM | > 100 µM | – | 35.4 µM | – | – | – | – | – | – | – | –
22 | CCCCCCOc1ccc(C(=N)N(CCCC)CCCC)c2ccccc12 | 3.17 µM | 2.07 µM | 3.23 µM | 2.45 µM | 3.01 µM | 3.07 µM | – | – | – | – | 1.6 µM | 0.61 µM | 1.6 µM | 1.19 µM | 1.56 µM | 1.53 µM
23 | C/C(=C\Cc1cc(O)ccc1O)CCc1c(C)cc(O)c(C=O)c1C | 79 µM | 23.6 µM | – | > 100 µM | 67.2 µM | 78.5 µM | 41 µM | > 100 µM | – | – | – | – | – | – | – | –
24 | COc1cccc(CN(C(=O)/C=C\Sc2ccccc2)C(C)(C)C)c1 | > 100 µM | – | > 100 µM | > 100 µM | – | > 100 µM | > 100 µM | – | > 100 µM | > 100 µM | – | – | – | – | – | –
25 | COC(=O)/C=C/c1ccc2c(c1)CC1(Cc3ccccc3C1)C2 | > 100 µM | > 100 µM | > 100 µM | > 100 µM | – | > 100 µM | 1.34 µM | > 100 µM | > 100 µM | – | – | – | – | – | – | –
